Measurements from patent US20230158102A1 (priority 2020, published 2023).

Key:
SARS-CoV-2 (COVID-19) = assay: Study APLICOV-PC (NCT04382066): efficacy in patients hospitalised for COVID-19; assay type: in vivo, human; conditions: for Patients discharged from hospital by Day 8, (%): 192 h; for Patients discharged from hospital by Day 31, (%) / Patients requiring oxygen therapy at Day 31, (%): 744 h
THP-1 cells = assay: Proinflammatory cytokine secretion in stimulated THP-1 cells; assay type: cell-based; conditions: THP-1 cells stimulated with pathogen-associated molecular patterns-mimicking compounds
Method: In vitro studies were performed using THP-1 cells, a spontaneously immortalised monocyte-like cell line derived from the peripheral blood of a childhood case of acute monocytic leukaemia, that is widely used for investigating monocyte structure and function.

SARS-CoV-2 = assay: Transgenic K18-hACE2 mice infected with SARS-CoV-2; assay type: in vivo
CD45+ cells = assay: Ex vivo cytokine expression (IL 6, IL 10, TNFα) in LPS-B5 stimulated CD45+ cells from broncho-alveolar lavages of treated mice; conditions: CD45+ cells from plitidepsin treated mice
Description: An ex vivo study assessed the effect of plitidepsin on expression of the cytokines IL 6, IL 10, and TNFα in the lungs of mice.

**Q.** Which “Patients requiring noninvasive mechanical ventilation from Day 1 to Day 31, (%)” value (SARS-CoV-2 (COVID-19); 1.5 mg) does the source give for `CC[C@H](C)[C@H]1NC(=O)[C@@H](NC(=O)[C@@H](CC(C)C)N(C)C(=O)[C@@H]2CCCN2C(=O)C(C)=O)[C@@H](C)OC(=O)[C@H](Cc2ccc(OC)cc2)N(C)C(=O)[C@@H]2CCCN2C(=O)[C@H](CC(C)C)NC(=O)[C@@H](C)C(=O)[C@H](C(C)C)OC(=O)C[C@@H]1O` [PLD, (−)-(3S,6R,7S,10R,11S,15S,17S,20S,25aS)-11-hydroxy-3-(4-methoxybenzyl)-2,6,17-trimethyl-15-(1-methylethyl)-7-[[(2R)-4-methyl-2-[methyl[[(2S)-1-(2-oxopropanoyl)pyrrolidin-2-yl]carbonyl]amino]pentanoyl]amino]-10-[(1S)-1-methylpropyl]-20-(2-methylpropyl)tetradecahydro-15H-pyrrolo[2,1-f]-[1,15,4,7,10,20]dioxatetrazacyclotricosine-1,4,8,13,16,18,21(17H)-heptone] here?
**A.** The value was “(21.4) %”.

**Q.** What about the “Patients requiring oxygen therapy at Day 7, (%)” value (SARS-CoV-2 (COVID-19); 1.5 mg, 168 h) of the same molecule?
**A.** The value was “(71.4) %”.

**Q.** What about the “Patients discharged from hospital by Day 8, (%)” value (SARS-CoV-2 (COVID-19); 1.5 mg) of the same molecule?
**A.** The value was “(42.9) %”.

**Q.** And the “Patients discharged from hospital by Day 15, (%)” value (SARS-CoV-2 (COVID-19); 1.5 mg, 360 h)?
**A.** The value was “(78.6) %”.

**Q.** What about the “Patients requiring oxygen therapy at Day 15, (%)” value (SARS-CoV-2 (COVID-19); 1.5 mg, 360 h) of the same molecule?
**A.** The value was “(28.6) %”.

**Q.** What about the “Patients discharged from hospital by Day 31, (%)” value (SARS-CoV-2 (COVID-19); 1.5 mg) of the same molecule?
**A.** The value was “(92.9) %”.

**Q.** What about the “Mean time from baseline until undetectable viral load” value (SARS-CoV-2 (COVID-19); 2 mg) of the same molecule?
**A.** Its value is 13 days.

**Q.** And the “Patients requiring ICU admission from Day 1 to Day 7, (%)” value (SARS-CoV-2 (COVID-19); 2 mg)?
**A.** Its value is “(6.7) %”.

**Q.** And the “Patients requiring ICU admission from Day 1 to Day 15, (%)” value (SARS-CoV-2 (COVID-19); 2 mg)?
**A.** The value was “(6.7) %”.

**Q.** And the “Patients requiring ICU admission from Day 1 to Day 31, (%)” value (SARS-CoV-2 (COVID-19); 2 mg)?
**A.** Its value is “(6.7) %”.

**Q.** What about the “Patients requiring invasive mechanical ventilation and/or ICU admission from Day 1 to Day 7, (%)” value (SARS-CoV-2 (COVID-19); 2 mg) of the same molecule?
**A.** Its value is “(6.7) %”.

**Q.** And the “Patients requiring invasive mechanical ventilation and/or ICU admission from Day 1 to Day 15, (%)” value (SARS-CoV-2 (COVID-19); 2 mg)?
**A.** The value was “(6.7) %”.

**Q.** What about the “Patients requiring invasive mechanical ventilation and/or ICU admission from Day 1 to Day 31, (%)” value (SARS-CoV-2 (COVID-19); 2 mg) of the same molecule?
**A.** The value was “(6.7) %”.

**Q.** What about the “Patients requiring noninvasive mechanical ventilation from Day 1 to Day 31, (%)” value (SARS-CoV-2 (COVID-19); 2 mg) of the same molecule?
**A.** Its value is “(6.7) %”.

**Q.** And the “Patients requiring oxygen therapy at Day 7, (%)” value (SARS-CoV-2 (COVID-19); 2 mg, 168 h)?
**A.** Its value is “(66.7) %”.

**Q.** What about the “Patients discharged from hospital by Day 8, (%)” value (SARS-CoV-2 (COVID-19); 2 mg) of the same molecule?
**A.** The value was “(60.0) %”.

**Q.** And the “Patients discharged from hospital by Day 15, (%)” value (SARS-CoV-2 (COVID-19); 2 mg, 360 h)?
**A.** Its value is “(93.3) %”.

**Q.** And the “Patients requiring oxygen therapy at Day 15, (%)” value (SARS-CoV-2 (COVID-19); 2 mg, 360 h)?
**A.** Its value is “(6.7) %”.

**Q.** What about the “Patients discharged from hospital by Day 31, (%)” value (SARS-CoV-2 (COVID-19); 2 mg) of the same molecule?
**A.** The value was “(93.3) %”.

**Q.** And the “Patients requiring oxygen therapy at Day 31, (%)” value (SARS-CoV-2 (COVID-19); 2 mg)?
**A.** The value was “(13.3) %”.

**Q.** What about the “Mean time from baseline until undetectable viral load” value (SARS-CoV-2 (COVID-19); 2.5 mg) of the same molecule?
**A.** The value was 12 days.

**Q.** What about the “Mortality from Day 1 to Day 31, (%)” value (SARS-CoV-2 (COVID-19); 2.5 mg) of the same molecule?
**A.** The value was “(6.7) %”.

**Q.** What about the “Patients requiring ICU admission from Day 1 to Day 7, (%)” value (SARS-CoV-2 (COVID-19); 2.5 mg) of the same molecule?
**A.** Its value is “(13.3) %”.

**Q.** And the “Patients requiring ICU admission from Day 1 to Day 15, (%)” value (SARS-CoV-2 (COVID-19); 2.5 mg)?
**A.** Its value is “(20.0) %”.

**Q.** And the “Patients requiring ICU admission from Day 1 to Day 31, (%)” value (SARS-CoV-2 (COVID-19); 2.5 mg)?
**A.** Its value is “(20.0) %”.

**Q.** And the “Patients requiring invasive mechanical ventilation and/or ICU admission from Day 1 to Day 7, (%)” value (SARS-CoV-2 (COVID-19); 2.5 mg)?
**A.** The value was “(13.3) %”.

**Q.** And the “Patients requiring invasive mechanical ventilation and/or ICU admission from Day 1 to Day 15, (%)” value (SARS-CoV-2 (COVID-19); 2.5 mg)?
**A.** The value was “(20.0) %”.

**Q.** What about the “Patients requiring invasive mechanical ventilation and/or ICU admission from Day 1 to Day 31, (%)” value (SARS-CoV-2 (COVID-19); 2.5 mg) of the same molecule?
**A.** The value was “(20.0) %”.

**Q.** What about the “Patients requiring noninvasive mechanical ventilation from Day 1 to Day 7, (%)” value (SARS-CoV-2 (COVID-19); 2.5 mg) of the same molecule?
**A.** The value was “(6.7) %”.

**Q.** And the “Patients requiring noninvasive mechanical ventilation from Day 1 to Day 15, (%)” value (SARS-CoV-2 (COVID-19); 2.5 mg)?
**A.** The value was “(13.3) %”.

**Q.** What about the “Patients requiring noninvasive mechanical ventilation from Day 1 to Day 31, (%)” value (SARS-CoV-2 (COVID-19); 2.5 mg) of the same molecule?
**A.** Its value is “(13.3) %”.

**Q.** And the “Patients requiring oxygen therapy at Day 7, (%)” value (SARS-CoV-2 (COVID-19); 2.5 mg, 168 h)?
**A.** Its value is “(73.3) %”.

**Q.** What about the “Patients discharged from hospital by Day 8, (%)” value (SARS-CoV-2 (COVID-19); 2.5 mg) of the same molecule?
**A.** The value was “(66.7) %”.

**Q.** And the “Patients discharged from hospital by Day 15, (%)” value (SARS-CoV-2 (COVID-19); 2.5 mg, 360 h)?
**A.** Its value is “(73.3) %”.

**Q.** What about the “Patients requiring oxygen therapy at Day 15, (%)” value (SARS-CoV-2 (COVID-19); 2.5 mg, 360 h) of the same molecule?
**A.** Its value is “(26.7) %”.

**Q.** What about the “Patients discharged from hospital by Day 31, (%)” value (SARS-CoV-2 (COVID-19); 2.5 mg) of the same molecule?
**A.** The value was “(86.7) %”.

**Q.** What about the “Patients requiring oxygen therapy at Day 31, (%)” value (SARS-CoV-2 (COVID-19); 2.5 mg) of the same molecule?
**A.** Its value is “(6.7) %”.

**Q.** And the “Mean reduction in viral load by Day 7” value (SARS-CoV-2 (COVID-19); 168 h)?
**A.** Its value is −3.1 log10 copies/mL.

**Q.** What about the “Patients requiring oxygen therapy at Day 7, (%)” value (SARS-CoV-2 (COVID-19); 168 h) of the same molecule?
**A.** Its value is “(70.5) %”.

**Q.** What about the “Patients discharged from hospital by Day 8, (%)” value (SARS-CoV-2 (COVID-19)) of the same molecule?
**A.** Its value is “(56.8) %”.

**Q.** And the “Patients discharged from hospital by Day 15, (%)” value (SARS-CoV-2 (COVID-19); 360 h)?
**A.** The value was “(81.8) %”.

**Q.** And the “Patients requiring oxygen therapy at Day 15, (%)” value (SARS-CoV-2 (COVID-19); 360 h)?
**A.** Its value is “(20.5) %”.

**Q.** And the “Patients with mild disease discharged by Day 15” value (SARS-CoV-2 (COVID-19); 360 h)?
**A.** The value was 100%.

**Q.** What about the “Patients with moderate disease discharged by Day 15” value (SARS-CoV-2 (COVID-19); 360 h) of the same molecule?
**A.** Its value is 82%.

**Q.** What about the “Patients with severe disease discharged by Day 15” value (SARS-CoV-2 (COVID-19); 360 h) of the same molecule?
**A.** The value was 57%.

**Q.** What about the “Reduction in baseline viral load by Day 15” value (SARS-CoV-2 (COVID-19); 360 h) of the same molecule?
**A.** Its value is −3.0 log.

**Q.** And the “Patients discharged from hospital by Day 31, (%)” value (SARS-CoV-2 (COVID-19))?
**A.** Its value is “(90.9) %”.

**Q.** And the “Patients requiring oxygen therapy at Day 31, (%)” value (SARS-CoV-2 (COVID-19))?
**A.** Its value is “(6.8) %”.

**Q.** And the “Mean reduction in viral load by Day 15” value (SARS-CoV-2 (COVID-19); across dose cohorts)?
**A.** Its value is 4.5 log10 copies/mL.

**Q.** What about the “Secretion of proinflammatory cytokines” value (THP-1 cells) of the same molecule?
**A.** Its value is “significantly reduced the secretion of the proinflammatory cytokines”.

**Q.** And the “Antiviral effects in vivo” value (SARS-CoV-2)?
**A.** Its value is “potent antiviral effects in vivo”.

**Q.** What about the “IL 6, IL 10 and TNFα production upon LPS-B5 stimulation compared with nonstimulated controls” value (CD45+ cells) of the same molecule?
**A.** The value was “failed to show a marked increase in IL 6, IL 10, and TNFα”.
